This is an account of results in publication PMC7496931, “Activation of Sirtuin 2 Inhibitors Employing Photoswitchable Geometry and Aqueous Solubility” (Chemmedchem, 2020).

By melting point is commonly meant the temperature of the solid-liquid transition.

A short description of data set [1]: Reductive stability in the presence of glutathione (HPLC). In kind it is physicochemical. To be noted: GSH 5 mM, 24 h, ambient temperature, HPLC analysis. As for the experimental part:
Reductive stability of 15 c, 15 f and 20 a in the presence of the cellular reductant glutathione (5 mM) was confirmed by HPLC analysis (Figure S5, Table S2). For the cell‐based activity assay, we illuminated the compounds solved in DMSO with UV light (365 nm) prior to incubation with the cells. […] As expected, 15 c and 15 f increased the levels of acetylated lysines H3K18 and H3K56, which are both affirmed substrates of Sirt2. In addition, we found H4K8 hyperacetylation even though this site is usually not affected by sirtuin catalysed deacetylation, indicating a further mode of action. […] In Figure 6, we show the relative results, whereby the acetylation product was related to total target protein and to the vehicle control. Again, we found an increase in acetylated histones induced by 15 c and 15 f which proves activity of these two compounds in living cells.
Glutathione (GSH) is able to reduce certain azobenzenes yielding the respective hydrazines.
Therefore, we determined the reductive stability of 15c, 15f and 20a prior to examination of the biological activity in a cell-based assay. […]
Table S2: Relative percentages (%) of GSH and the respective photoisomers extracted from the HPLC analysis. Samples were analyzed right after addition of GSH (0 h) and after 24 h of incubation at ambient temperature. […]
Fluorescence-Based Activity Assay (ZMAL-Assay)
The influence of the synthesized compounds on the deacetylase activity of the class I sirtuins Sirt1–3 was determined in a homogenous fluorescence-based enzyme assay, using the artificial substrate Z-(Ac)Lys-AMC (ZMAL). […]
The latter is subsequently cleaved by tryptic digestion, releasing 7-amino-4-methylcoumarin (AMC), excitation of which leads to a fluorescent read out (λex=390 nm; λem=460 nm). […]
contribute to the fluorescence signal. Therefore, the fluorescence intensity is proportional to the activity of the respective sirtuin.
After subtraction of the blank fluorescence signal (without enzyme) from the signal of the respective probe, the residual signal intensity is related to a 100 % conversion control (AMC),

The nature of data set [2]: UV/Vis spectra and half-life of thermal Z→E isomerization. In kind it is physicochemical. Details: k of thermal Z→E isomerization (non-linear regression): unit not given here. Particulars: for λΔ/max absorption maximum at thermal equilibrium: 50 μM in DMSO/assay buffer; for k of thermal Z→E isomerization (non-linear regression): 50 μM. On the procedure:
(§1) Photochemistry: All photoisomerization experiments were conducted under ruby light of 630 nm and total exclusion of daylight. Illumination was executed using a Bio‐Link 254 Crosslinker from Vilber‐Lourmat equipped with six Vilber‐Lourmat T8‐L lamps (8 W, 365 nm). Visible light radiation of 630 nm (ruby) and 452 nm (blue) was derived from a Paulmann FlexLED 3D strip. All compounds were irradiated in solution using spectrophotometric grade solvents. Photoisomerization and UV/Vis‐spectra measurement was conducted in quartz glass cuvettes (114‐QS, Hellma Analytics) at room temperature.
UV/Vis Spectra and Half-Life of Thermal Isomerization
The half-life of the thermal Z→E isomerization after 5 minutes of 365 nm irradiation was determined by UV/Vis-spectroscopy. Therefore, solutions of the respective compounds (50 µM) in 5%, 50% or 90% DMSO in enzyme assay buffer (v/v) were prepared. An initial spectrum of the thermal equilibrium was recorded. After 5 minutes of irradiation with 365 nm the increase of absorbance at the thermal equilibrium maximum (λ∆max) was recorded as exemplified by compound 15c (Figure S3). Absorbance at λ = λ ∆max was plotted as a function of time. Non-linear regression yielded the half-life of the thermal Z→E isomerization (Table S1). For extrapolation of the reaction kinetics, the plateau value was set to the initial absorbance at λ=λ∆max. The following equation was used for non-linear regression:
y = (y0 − Plateau)e−kx + Plateau
Figure S3: Left: UV-Vis spectrum of 15c (50 µM) in assay buffer (5% DMSO, v/v) at the thermal equilibrium (∆) and the photostationary state (PSS) after UV irradiation (365 nm). Right:
Absorbance of 15c (50 µm) in assay buffer (5% DMSO, v/v) at λ∆max = 328 nm after 5 minutes of UV (365 nm) irradiation.
(1 picture or pasted object on this page, not shown here)

Data set [3] is described as follows: Photoisomer distribution (PSD) by HPLC-ELSD. In kind it is physicochemical. Particulars: HPLC in MeOH/water, ELSD; for E/Z [%] PSD @ 365 nm: after 365 nm irradiation; for E/Z [%] PSD @ 452 nm: after 452 nm irradiation. On the procedure: as §1

For `CC(C)(C)OC(=O)NCc1ccc(/N=N/c2cncc(C(N)=O)c2)cc1` [15 c], the melting point is 212.1 °C (dec.). In addition, in data set [1], the “Reductive stability in the presence of glutathione” value is on record as “confirmed”. Also, the “λΔ/max absorption maximum at thermal equilibrium” value in data set [2] (5 % DMSO (v/v)) is on record as 329 nm. The “k of thermal Z→E isomerization (non-linear regression)” value in data set [2] (5 % DMSO (v/v) in assay buffer) was 0.002173. Also, in data set [3], the “E/Z [%] PSD @ 365 nm” value is given as 11/89 and the “E/Z [%] PSD @ 452 nm” value is 86/14.

As for `CCCCCCCCCC(=O)NCc1ccc(/N=N/c2cncc(C(N)=O)c2)cc1` [15 f], the melting point stood at 259.5 °C. The “Reductive stability in the presence of glutathione” value in data set [1] is reported as “confirmed”. Moreover, in data set [2] (90 % DMSO (v/v)), the “λΔ/max absorption maximum at thermal equilibrium” value came to 333 nm. In addition, in data set [2] (90 % DMSO (v/v) in assay buffer), the “k of thermal Z→E isomerization (non-linear regression)” value was 0.006796. Also, in data set [3], the “E/Z [%] PSD @ 365 nm” value was 5/95 and the “E/Z [%] PSD @ 452 nm” value is recorded as 79/21.
